Assays:
E-cadherin = E-cadherin proteolysis in A431 cells during STS-induced apoptosis (Western blot, C36 antibody); assay type: cell-based, human; details: then STS 6 hours
Description: FIG. 11 provides digitized images and graphs showing that apoptosis enhances γ-secretase activity and levels of γ-secretase complex proteins. FIG. 11a: Apoptosis was induced in CAB, CHO-CC99/PS1 and CHO-APP 751/PS1 by STS treatment for 6 hours with or without zVAD (100 μM). Secreted Aβ1−total was measured by ELISA. […] Each bar represents the mean and SD of quadruplicate determinations. FIG. 11b: Western blot analysis with the antibody, A8717, detected endogenous APP-FL and overexpressed C99 in CHO-CC99/PS1cells, while overexpressed APP-FL and C83 were detected in CHO-APP751/PS1 cells. FIG. 11c: A431 human epithelial cells were pre-incubated for 30 min in the absence (−) or presence (+) of zVAD-FMK (100 μM), L-685,458 (0.5 μM) or GM6001 (2.5 μM). Cells were then treated with STS for 6 hours to induce apoptosis, and cell extracts were probed with anti-E-cadherin C36 antibody. FIG. 11d: Protein levels of γ-secretase complex components were monitored by Western blotting employing the anti-nicastrin, Ab14, PNT2, H2D2 antibodies. Densitometry analysis was performed using NIH image software. Each bar represents the mean and SEM of at least three experiments. FIG. 11e: Nicastrin was transiently transfected in the A431 cells. Western blot analysis for E-cadherin and γ-secretase complex component was performed as in FIG. 11c and FIG. 11d β-tubulin was used as loading control.
To confirm that apoptosis/caspase activation increases γ-secretase activity, we next examined the proteolysis of E-cadherin, another γ-secretase substrate (Marambaud, P. et al., Embo J21, 1948-56 (2002)) during apoptosis. We confirmed that caspase activation enhanced the production of E-Cad/CTF1 (Steinhusen, U. et al., J Biol Chem 276, 4972-80 (2001)), E-Cad/CTF2 (Marambaud, P. et al., 2002) (˜2- and 3-fold increase by densitometry analysis, respectively), and generated E-Cad/CTF3 (Marambaud, P. et al., 2002) (FIG. 11c). […]

proteasome = assay: Proteasome inhibition: BACE and nicastrin protein levels by Western blot in H4 cells; assay type: cell-based, human
Description: Densitometric analysis was performed with NIH image and reported in bar graphs (FIG. 8B).

BACE = BACE protein levels by Western blot and densitometry in CAB cells; assay type: cell-based, Chinese Hamster; details: etoposide (ETO) treatment, CAB cells
Description: (§1) Chinese Hamster Ovary (CHO) cells expressing APP751 and BACE (CAB), CHO cells expressing full-length APP and wild-type PS1 (CHO-APP751/PS1) or expressing C99 and wild-type PS1 (CHO-CC99/PS1), H4 human neuroglioma cells expressing APP751 (H4-APP751), mouse embryonic fibroblast (MEF), embryonic stem (ES) cells, and human epithelial A431 cells were grown as described previously (Marambaud, P. et al., Embo J 21, 1948-56 (2002); Cai, H. et al., Nat Neurosci 4, 233-4 (2001); Sato, N. et al., Nat Cell Biol 2, 863-70 (2000); Puglielli, L., Ellis, B. C., Saunders, A. J. & Kovacs, D. M., J Biol Chem 278, 19777-83 (2003); Wolfe, M. S. et al., Nature 398, 513-7 (1999)). For the induction of apoptosis, we used staurosporine or etoposide (Calbiochem (EMD Biosciences, San Diego, Calif.)). For Aβ measurements, cells were seeded at the density of 0.5×10^6 cells per well in 6 well plates. After 48 hours, cells were treated with either STS (1 μM) for 6 hours. In order to inhibit caspase activation a sister plate of cells was pre-treated with zVAD (1001M, Enzyme Systems Products) for 1 hour before STS treatment. For time-course experiments, cells were seeded at the density of 2×10^6 cells per 100 mm dish and treated with STS (1 μM) or etoposide (100 μg/mL). At different time points (0, 3, 6, 9, 12 and 24 hours), the cells were scraped, centrifuged and then lysed in buffer containing 1% NP40. Western blot analysis was performed as previously described (Tesco, G., Koh, Y. H. & Tanzi, R. E., J Biol Chem 278, 46074-80 (2003)). Densitometry analysis was performed on a Macintosh computer using the public domain NIH Image program (developed at the U.S. National Institutes of Health and available on the Internet at http://rsb.info.nih.gov/nih-image/).
It has been previously shown that overexpression of BACE enhances β-secretase cleavage of APP leading to the accumulation of intracellular C99 (Vassar, R. et al., Science 286, 735-41 (1999)). We first asked whether apoptosis/caspase activation leads to accumulation of C99 owing to increased β-secretase activity.

[1] = test system: Aβ production in CHO cells overexpressing APP751 and PS1 WT; assay: Secreted Aβ ELISA in CHO cells overexpressing APP751 and PS1 during induced apoptosis; assay type: cell-based, Chinese Hamster; details: etoposide 100 μg/mL, 12 hrs
Description: We examined Aβ generation induced by apoptosis in CHO cell lines. We used CHO cell lines stably overexpressing both APP751 and PS1 WT. For the induction of apoptosis, we used 1 μM staurosporine (STS) in serum free media. Secreted Aβ was measured in the conditioned media of cells treated with STS for 6 hrs using a sensitive ELISA assay [courtesy of Dr. Dennis Selkoe; M. S. Wolfe et al., Nature 398, 513-7 (1999)].
Treatment with either STS for 6 hrs or etoposide for 12 hrs induced from 10 to 20% of cell death assayed by MTT assay, which is a colorimetric short-term suspension culture assay in which the yellow tetrazolium salt (MTT) is reduced in metabolically active cells to form insoluble purple formazan crystals, which are solubilized by the addition of a detergent.
as §1, with “In order to inhibit caspase activation a sister plate of cells was pre-treated with zVAD (1001M, Enzyme Systems Products) for 1 hour before STS treatment.” left out
Secreted Aβ1-total was measured in the conditioned media of untreated cells or of cells treated with STS or STS plus zVAD using a sensitive ELISA (Wolfe, M. S. et al., Nature 398, 513-7 (1999). At least three different experiments were carried out and each experiment was performed at least in triplicate.

CC(C)C[C@H](NC(=O)[C@H](Cc1ccccc1)C[C@@H](O)[C@H](Cc1ccccc1)NC(=O)OC(C)(C)C)C(=O)N[C@@H](Cc1ccccc1)C(N)=O [L-685,458]
generation of E-Cad/CTF2 (E-cadherin; L-685,458 0.5 μM pre-incubated 30 min): inhibited

CC(=O)N[C@@H](CSC(=O)[C@]1([C@@H](O)C(C)C)NC(=O)[C@H](C)[C@@H]1O)C(=O)O [Lactacystin, lactacystin]
protein levels of nicastrin (proteasome; Lactacystin 10 μM for 24 hrs, medium containing 10% serum): increased
BACE full length and BACE-CTF levels (proteasome; Lactacystin treatment, H4 cells): did not affect

CNC(=O)[C@H](Cc1c[nH]c2ccccc12)NC(=O)[C@@H](CC(=O)NO)CC(C)C [GM6001]
generation of E-Cad/CTF1 (E-cadherin; GM6001 2.5 μM pre-incubated 30 min): inhibited

COc1cc([C@@H]2c3cc4c(cc3[C@@H](O[C@@H]3O[C@@H]5CO[C@@H](C)O[C@H]5[C@H](O)[C@H]3O)[C@H]3COC(=O)[C@H]23)OCO4)cc(OC)c1O [etoposide]
BACE protein levels (BACE): increase
Secreted Aβ1-42 [1]: increased
Secreted Aβtotal [1]: increased

Source: patent US7326540B2, “Methods for identifying compounds that modulate stabilization of secretase-associated proteins” (priority 2003, dated 2008)
